Laboratory results from publication PMC7768359, “Synthesis of Platinum(II) Complexes with Some 1-Methylnitropyrazoles and In Vitro Research on Their Cytotoxic Activity” (Pharmaceuticals, 2020).

System: HL-60 cells
Experiment: Cell cycle analysis (propidium iodide, flow cytometry)
Type: cell-based, human
Details: 80 µM, 48 h
Method: To establish how compounds 1 and 2 influence the cell cycle and cell death, the HL-60 human promyelocytic leukemia cell line was used. The results are outlined in the Figure 7 and Figure 8, respectively. […] This led to disturbances in the cell cycle progression, expressed as a significant decrease in G0/G1 and S phase, compared to the untreated control (Figure 7).
Cultured HL-60 cells (human acute promyelocytic leukemia) were seeded at a density of 2 × 10^5 cells/mL of culture medium on 24-well plates (Corning, NY, USA) to a final volume of 2 mL. […] The stock solutions of platinum derivatives were prepared as described above.
After 48 h of incubation, the cells were collected and washed in phosphate-buffered saline (PBS; HIIET, Wroclaw, Poland) supplemented with 2% of fetal bovine serum and counted in a hemocytometer. Then, the cells (1 × 10^6 per sample) were washed twice in cold PBS and fixed for 24 h in 70% ethanol at −20 °C. Following this, the cells were washed twice in PBS and incubated with RNAse (8 μg/mL, Fermentas GmbH, St. Leon-Rot, Germany) at 37 °C for 1 h. Finally, the cells were stained for 30 min with propidium iodide (0.5 mg/mL; Sigma-Aldrich, Steinheim, Germany) at 4 °C and the cellular DNA content was determined using a BD LSR Fortessa instrument (Becton Dickinson, San Jose, CA, USA) and WinMDI 2.8 software. The experiment was repeated at least three times.

## Cn1cc([N+](=O)[O-])c[n+]1[Pt@SP2-2]([Cl])([Cl])[n+]1cc([N+](=O)[O-])cn1C [Compound 1, cis-dichloridobis(1-methyl-4-nitropyrazole)platinum(II)]
  cell death (Sub-G1) and cell cycle progression of HL-60 cells: induced cell death (Sub-G1)
